Results taken from US8846704B2, “Thiopyrimidine-based compounds and uses thereof” (YM Biosciences Austraila Pty Ltd, priority 2007, dated 2014).

The compounds below were run against T1, BaF3 TELJAK3 cells (Homo sapiens, UniProt P52333) (assay: Cellular screening, BaF3 TEL:JAK3 cells, Alamar Blue). Details: 40 hr, read-out: BafT_J3 IC50_nM.
T1 construct: fused on or other part: TEL (ETV6) N-terminal part, coding nucleotides 1-487, serves as the oligomerising partner; It is fused through a Sal I site to the JAK3 kinase domain and expressed from pTRE2 in BaF3 cells bearing pTET-off; P41212 (Transcription factor ETV6)
T1 sequence (P52333 1-1124): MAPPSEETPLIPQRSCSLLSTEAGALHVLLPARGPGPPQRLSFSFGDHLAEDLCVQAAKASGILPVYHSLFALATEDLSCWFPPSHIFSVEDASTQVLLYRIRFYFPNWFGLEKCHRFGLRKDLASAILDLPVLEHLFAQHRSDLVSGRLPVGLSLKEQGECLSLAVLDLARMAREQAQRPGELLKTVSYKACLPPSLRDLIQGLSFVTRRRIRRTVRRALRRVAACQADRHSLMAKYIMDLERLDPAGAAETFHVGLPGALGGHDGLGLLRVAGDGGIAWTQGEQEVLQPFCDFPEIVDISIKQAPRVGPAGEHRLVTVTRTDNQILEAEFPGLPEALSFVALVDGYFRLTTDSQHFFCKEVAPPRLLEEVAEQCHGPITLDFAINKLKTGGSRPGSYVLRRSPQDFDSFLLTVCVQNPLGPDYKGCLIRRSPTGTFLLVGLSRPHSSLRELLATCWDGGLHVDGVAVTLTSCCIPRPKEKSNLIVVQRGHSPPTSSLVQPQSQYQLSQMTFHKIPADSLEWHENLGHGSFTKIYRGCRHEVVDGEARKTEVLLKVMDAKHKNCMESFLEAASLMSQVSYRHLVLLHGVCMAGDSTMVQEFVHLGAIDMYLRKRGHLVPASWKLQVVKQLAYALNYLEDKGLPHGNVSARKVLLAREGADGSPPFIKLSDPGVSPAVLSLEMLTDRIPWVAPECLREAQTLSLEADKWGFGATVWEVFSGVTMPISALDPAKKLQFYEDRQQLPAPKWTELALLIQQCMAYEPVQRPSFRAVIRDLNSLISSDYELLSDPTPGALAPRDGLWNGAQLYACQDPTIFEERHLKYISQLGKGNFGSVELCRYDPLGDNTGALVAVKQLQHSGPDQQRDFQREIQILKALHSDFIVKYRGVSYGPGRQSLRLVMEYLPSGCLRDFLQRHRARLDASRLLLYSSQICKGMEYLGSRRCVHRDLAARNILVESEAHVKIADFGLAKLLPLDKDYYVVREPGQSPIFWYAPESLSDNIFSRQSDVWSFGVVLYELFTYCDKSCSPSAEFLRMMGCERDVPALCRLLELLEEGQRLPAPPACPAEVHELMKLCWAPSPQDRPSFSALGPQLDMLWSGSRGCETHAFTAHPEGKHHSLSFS
Assay type: cell-based
How it was run: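 Alamar Blue signal at 544 nm, developed for 4–6 h, measured viability after 40 h of compound treatment at 37 °C, 5% CO2. Cells were growth-factor-independent BaF3 lines transfected with a TEL/JAK3 kinase-domain fusion under tet-off control. They were cultured in DMEM, 10% Tet-approved FBS, lacking WEHI 3B conditioned medium.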

| Compound | GI50 [µM] |
| --- | --- |
| C=CC(=O)Nc1ccc(Sc2nc(Nc3cccc(OC(F)(F)F)c3)ncc2C)cc1 [Compound 289, N-(4-(5-methyl-2-(3-(trifluoromethoxy)phenylao)pyrimidin-4-ylthio)phenyl)acrylamide] | < 5 |
| C=CC(=O)Nc1ccc(Sc2ccnc(Nc3ccc(S(=O)(=O)N4CCN(C)CC4)cc3)n2)cc1 [Compound 370, N-(4-(2-(4-(4-methylpiperazin-1-ylsulfonyl)phenylao)pyrimidin-4-ylthio)phenyl)acrylamide] | < 5 |
| COc1ccc(Nc2nccc(Sc3ccc(NC(=O)CC#N)cc3)n2)cc1OC [Compound 101, 2-cyano-N-(4-(2-(3,4-dimethoxyphenylao)pyrimidin-4-ylthio)phenyl)acetamide] | < 1 |
| C=CC(=O)Nc1ccc(Sc2nc(Nc3ccc(N4CCOCC4)cc3)ncc2C)cc1 [Compound 124, N-(4-(5-methyl-2-(4-morpholinophenylao)pyrimidin-4-ylthio)phenyl)acrylamide] | < 1 |
| Cc1cnc(Nc2ccc(N3CCOCC3)cc2)nc1Sc1ccc(NC(=O)/C=C/C(=O)O)cc1 [Compound 387, (E)-4-(4-(5-methyl-2-(4-morpholinophenylao)pyrimidin-4-ylthio)phenylao)-4-oxobut-2-enoic acid] | > 20 |
| CC#CC(=O)Nc1ccc(Sc2nc(Nc3ccc(N4CCOCC4)cc3)ncc2C)cc1 [Compound 125, N-(4-(5-methyl-2-(4-morpholinophenylao)pyrimidin-4-ylthio)phenyl)but-2-ynamide] | < 5 |
| C=CC(=O)Nc1ccc(Sc2ccnc(Nc3cccc(S(=O)(=O)N4CCN(C)CC4)c3)n2)cc1 [Compound 365, N-(4-(2-(3-(4-methylpiperazin-1-ylsulfonyl)phenylao)pyrimidin-4-ylthio)phenyl)acrylamide] | < 5 |
| CC#CC(=O)Nc1ccc(Sc2ccnc(Nc3ccc(N4CCOCC4)cc3)n2)cc1 [Compound 104, N-(4-(2-(4-morpholinophenylao)pyrimidin-4-ylthio)phenyl)but-2-ynamide] | < 5 |
| O=C(Nc1ccc(Sc2ccnc(Nc3ccc(N4CCOCC4)cc3)n2)cc1)C1CC1(F)Cl (stereo not drawn) [Compound 378, 2-chloro-2-fluoro-N-(4-(2-(4-morpholinophenylao)pyrimidin-4-ylthio)phenyl)cyclopropanecarboxamide] | < 1 |
| CSc1nc(Nc2ccc(N3CCOCC3)cc2)ncc1C [Compound 176, 5-methyl-4-(methylthio)-N-(4-morpholinophenyl)pyrimidin-2-ae] | < 5 |
| C=CC(=O)Nc1ccc(Sc2ccnc(Nc3ccc(N4CCS(=O)(=O)CC4)cc3)n2)cc1 [Compound 99, N-{4-[(2-{[4-(1,1-dioxo-1λ^6,4-thiomorpholin-4-yl)phenyl]ao}pyrimidin-4-yl)sulfanyl]phenyl}prop-2-enamide] | < 1 |
| C=CC(=O)Nc1ccc(Sc2nc(Nc3ccc(N4CCOCC4)cc3)ncc2Cl)cc1 [Compound 315, N-(4-(5-chloro-2-(4-morpholinophenylao)pyrimidin-4-ylthio)phenyl)acrylmide] | < 1 |
| CNC(=O)CCC(=O)Nc1ccc(Sc2nc(Nc3ccc(N4CCOCC4)cc3)ncc2C)cc1 [Compound 386, N1-methyl-N4-(4-(5-methyl-2-(4-morpholinophenylao)pyrimidin-4-ylthio)phenyl)succinamide] | > 20 |
| C=CC(=O)Nc1ccc(Sc2nc(Nc3ccc(N4CCOCC4)cc3)ncc2-c2ccccc2)cc1 [Compound 307, N-(4-(2-(4-morpholinophenylao)-5-phenylpyrimidin-4-ylthio)phenyl)acrylamide] | < 20 |
| O=C(CCl)Nc1cccc(Sc2ccnc(Nc3ccc(N4CCOCC4)cc3)n2)c1 [Compound 332, 2-chloro-N-(3-(2-(4-morpholinophenylao)pyrimidin-4-ylthio)phenyl)acetamide] | < 1 |
| C=CC(=O)Nc1cccc(Sc2ccnc(Nc3ccc(OC)cc3)n2)c1 [Compound 120, N-(3-(2-(4-methoxyphenylao)pyrimidin-4-ylthio)phenyl)acrylamide] | < 1 |
| C=CC(=O)Nc1ccc(Sc2ccnc(Nc3ccc(S(=O)(=O)NCc4ccccc4)cc3)n2)cc1 [Compound 368, N-(4-(2-(4-(N-benzylsulfamoyl)phenylao)pyrimidin-4-ylthio)phenyl)acrylamide] | < 5 |
| C=CC(=O)Nc1ccc(Sc2ccnc(Nc3ccc(C#N)cc3)n2)cc1 [Compound 131, N-(4-(2-(4-cyanophenylao)pyrimidin-4-ylthio)phenyl)acrylamide] | < 5 |
| C=CC(=O)Nc1ccc(Sc2nc(Nc3ccc(O)cc3)ncc2C)cc1 [Compound 282, N-(4-(2-(4-hydroxyphenylao)-5-methylpyrimidin-4-ylthio)phenyl)acrylamide] | < 1 |
| C=CC(=O)N(C)c1ccc(Sc2ccnc(Nc3ccc(N4CCOCC4)cc3)n2)cc1 [Compound 91, N-methyl-N-(4-(2-(4-morpholinophenylao)pyrimidin-4-ylthio)phenyl)acrylamide] | < 1 |
| C=CC(=O)Nc1ccc(Sc2nc(Nc3ccc(N4CCOCC4)cc3)ncc2I)cc1 [Compound 313, N-(4-(5-iodo-2-(4-morpholinophenylao)pyrimidin-4-ylthio)phenyl)acrylamide] | < 1 |
| C=CC(=O)Nc1ccc(Sc2ccnc(Nc3cccc(Cl)c3)n2)cc1 [Compound 348, N-(4-(2-(3-chlorophenylao)pyrimidin-4-ylthio)phenyl)acrylamide] | < 5 |
| C=CC(=O)Nc1ccc(Sc2nc(Nc3ccc(N4CCC(C(=O)OCC)CC4)cc3)ncc2C)cc1 [Compound 292, ethyl 1-(4-(4-(4-acrylamidophenylthio)-5-methylpyrimidin-2-ylao)phenyl)piperidine-4-carboxylate] | < 5 |
| CC(=O)Nc1ccc(Sc2ccnc(Nc3ccc(N4CCC(N5CCCC5)CC4)cc3)n2)cc1 [Compound 86, N-(4-(2-(4-(4-(pyrrolidin-1-yl)piperidin-1-yl)phenylao)pyrimidin-4-ylthio)phenyl)acetamide] | < 5 |
| Cc1cnc(Nc2ccc(N3CCOCC3)cc2)nc1Sc1ccc(NC(=O)CCC(=O)O)cc1 [Compound 383, 4-(4-(5-methyl-2-(4-morpholinophenylao)pyrimidin-4-ylthio)phenylao)-4-oxobutanoic acid] | > 20 |
| C=CC(=O)Nc1ccc(Sc2ccnc(Nc3cccc(S(=O)(=O)N4CCOCC4)c3)n2)cc1 [Compound 372, N-(4-(2-(3-(morpholinosulfonyl)phenylao)pyrimidin-4-ylthio)phenyl)acrylamide] | < 5 |
| C=CC(=O)Nc1ccc(Sc2ccnc(Nc3ccc(OC)c(O)c3)n2)cc1 [Compound 97] | < 1 |
| COC(=O)COCC(=O)Nc1ccc(Sc2nc(Nc3ccc(N4CCOCC4)cc3)ncc2C)cc1 [Compound 189, methyl 2-(2-(4-(5-methyl-2-(4-morpholinophenylao)pyrimidin-4-ylthio)phenylao)-2-oxoethoxy)acetate] | < 20 |
| C=CC(=O)Nc1ccc(Sc2nc(Nc3cccc(OCCCO)c3)ncc2C)cc1 [Compound 301, N-(4-(2-(3-(3-hydroxypropoxy)phenylao)-5-methylpyrimidin-4-ylthio)phenyl)acrylamide] | < 1 |
| C=CC(=O)Nc1ccc(Sc2ccnc(Nc3cccc(C#N)c3)n2)cc1 [Compound 118, N-(4-(2-(3-cyanophenylao)pyrimidin-4-ylthio)phenyl)acrylamide] | < 5 |
